This note sets out measurements from patent publication US20240385182A1, “MASKED FLUOROGENIC LIPID COMPOUNDS, LIPID PARTICLES COMPRISING THE SAME, AND METHODS OF USE THEREOF” (Rutgers, The State University of New Jersey, priority 2023, published 2024).

Data set [1] in a line: Photophysical characterization of probes and uncaged forms (relative fluorescence quantum yield, extinction coefficient, brightness). The format is physicochemical. The conditions noted are these: for Relative Brightness: Table 3; for Brightness: in M⁻¹·cm⁻¹ (unit assumed). An outline of the steps:
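Relative fluorescence quantum yields of caged probes and uncaged forms, referenced to coumarin 343 (ΦF 0.63 in ethanol) for triazole-coumarins and fluorescein (ΦF 0.79 in ethanol) for triazole-fluoresceins. Measured in Tris 50 mM, pH 7.5; coumarin largely aryloxide (TEG-TC pKa 7.1±0.1 by UV-Vis).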

Data set [2] is described as follows: Confocal imaging of H2S-sensing giant vesicles. The conditions noted are these: GVs with POPC, POPG, cholesterol; H2S (500 μM) over 1 hour. An excerpt: FIGS. 14A-14B: giant vesicles (GVs) that can sense reductive (FIG. 14A) or oxidative (FIG. 14B) environments. Confocal images acquired for H2S-sensing GV at 405/475 nm (ex/em) (FIG. 14A) and H2O2 sensing GV at 490/520 nm (ex/em) (FIG. 14B). Lipid compositions of GVs: POPC, POPG, cholesterol, and DPPC-TC-H2S (48:21:30:1 molar ratio; FIG. 14A); and POPC, POPG, cholesterol, and DPPC-TF-H2O2 (48.5:21:30:0.5; FIG. 14B). To label vesicle membranes, Liss-Rhod PE dye (563/580 nm) was introduced to the lipid mixture at an insignificant molar ratio (0.1 mol %). Concentrations of RSS and ROS were set to 500 and 100 μM, respectively. Scale bar=5 μm.
The redox sensing abilities of giant vesicles (GVs) comprising DPPC-TC-H2S or DPPC-TF-H2O2 were investigated. In most biomimetic systems that rely on compartmentalization, physical membrane boundaries are comprised of phospholipids and cholesterol. These lipid self-assemblies have dimensional properties (1-30 μm in diameter) relevant to those of a mammalian plasma membrane (10-100 μm), display physical characteristics feasible for confocal fluorescence imaging, and are conveniently utilized for bottom-up construction of biomimetic protocells. […]
The vesicle size distribution was analyzed by dynamic light scattering (DLS), confirming the presence of GVs. […]

A short description of data set [3]: Specificity of TEG-TF-H2O2 against other ROS. The conditions noted are these: ·OH 100 μM, 2 hours. On the procedure: (§1) The redox-specificities of the non-amphiphilic probes, TEG-TC-H2S or TEG-TF-H2O2, were assessed by subjecting them to various RSS or ROS (FIGS. 13A-13B). Change in fluorescence intensity following excitation of each sample containing the respective probe was measured over 120 minutes of incubation and presented based on the signal-to-background ratio F/F0, where F and F0 are defined as the fluorescence with and without the redox species. The F/F0 of the untreated samples were set to 1 for comparisons. […] Samples containing TEG-TF-H2O2 and treated with 100 μM H2O2 presented a steady fluorescence enhancement within 2 hours, resulting in 4.4-fold higher fluorescence than those of the untreated samples (FIG. 13B).
(§2) The specificity of TEG-TC-H2S toward H2S was evaluated by comparing its reactivity against different RSS, cysteine (Cys), glutathione (GSH), sulfite (SO3^2−), and thiosulfate (S2O3^2−). At 1 mM initial concentration and a total incubation time of 2 hours, these sulfur species induced an increase in coumarin fluorescence by less than 25% compared to the untreated sample (FIG. 13A). […] The specificity of TEG-TF-H2O2 toward H2O2 was also assessed, by incubating the samples containing TEG-TF-H2O2 with 100 μM either hydroxyl radical (·OH), nitric oxide (NO), or superoxide radical (O2·^−) for 2 hours. […]

The nature of data set [4]: Fluorescence activation and LoD of TEG-TF-H2O2 with H2O2 in Tris buffer. On the procedure:
FIGS. 13A-13D: specificity (FIGS. 13A-13B) and limit of detection (LoD) (FIGS. 13C-13D) of TEG-TC-H2S and TEG-TF-H2O2. LoD measurements for the probes TEG-TC-H2S (390/475 nm) and TEG-TF-H2O2 (485/525 nm) were performed in Tris buffer (50 mM, pH 7.5). Error bars represent the standard deviation; n=3. Single-tailed Student's t test: *, P<0.05; **, P<0.01; ***, P<0.001; ****, P<0.0001.
as §1
as §2, with “hours. Among these three reactive oxygen species, ·OH induced the highest fluorescence increase (2.2-fold), which was lower than that for H2O2 (4.4-fold). The relatively low yet observable reactivity of ·OH may have been due, in large part, to the residual unreacted H2O2 used for generating ·OH.” for “hours.”

On to `CCCCCCCCCCCCCCCC(=O)OCC(COP(=O)([O-])OCC[N+](C)(C)Cc1cn(-c2cc3ccc(OCc4ccc(N=[N+]=[N-])cc4)cc3oc2=O)nn1)OC(=O)CCCCCCCCCCCCCCC` (racemic) [DPPC-TC-H2S], for which, in data set [1], the Emmax amounted to 473.5 nm, the Exmax is listed as 396.5 nm, the “Ext. Coeff.” value is 24111 M⁻¹ cm⁻¹ and the Brightness was determined as 72. Moreover, in data set [1] (brightness compared to that of DPPC-TC-H2S), the “Relative Brightness” value turned out to be 1.0. Further, in data set [1] (standard coumarin 343), the “Quantum Yield (relative fluorescence quantum yield ΦFrel)” value worked out at 0.03. In addition, the GV fluorescence entry in data set [2] was “significant increase in fluorescence”.
As to `CC1(C)OB(c2ccc(COC(=O)Oc3ccc4c(c3)Oc3cc(OC(=O)OCc5ccc(B6OC(C)(C)C(C)(C)O6)cc5)ccc3C43OC(=O)c4cc(-n5cc(COCCOCCOCCO)nn5)ccc43)cc2)OC1(C)C` [TEG-TF-H2O2], in data set [1], the Emmax is recorded as 526.0 nm, the Exmax was determined as 492.0 nm, the “Ext. Coeff.” value is 13429 M⁻¹ cm⁻¹ and the Brightness was 537. Also, the “Relative Brightness” value in data set [1] (brightness compared to that of DPPC-TF-H2O2) worked out at 2.5. The “Quantum Yield (relative fluorescence quantum yield ΦFrel)” value in data set [1] (standard fluorescein) amounted to 0.04. The same compound came in with a fluorescence increase in data set [3] of 2.2 fold. The “fluorescence compared to untreated samples” value in data set [4] (100 μM H2O2, 2 hours, Tris pH 7.5) is given as 4.4 fold. The same compound returned a LoD in data set [4] (minimum H2O2 concentration at which F is statistically higher than F0, 485/525 nm, Tris 50 mM pH 7.5) of 10 µM. Also, the “fluorescence increase of the untreated sample compared to the fluorescence at 1 min (possible hydrolysis)” value in data set [4] (no redox species, pH 7.5, 120 minutes) is 277%.
